Measured values as given in publication PMC7044277 (Nature Communications, 2020).
Where “and” joins values, the source holds several entries; their conditions need not be identical. Equal values may be shown once.

Tests used:
Type in all cases: cell-based
320 non-olfactory GPCRs [1] = molecular target: T1, 320 non-olfactory GPCRs (Homo sapiens, UniProt Q96LB1); conditions: receptor MRGPRX2; replicate values, Fig_4g
T1 construct: expressed in transfected cells; host or cells: HTLA cells

320 non-olfactory GPCRs [2] = molecular target: T2, 320 non-olfactory GPCRs (Homo sapiens, UniProt P41231); conditions: receptor P2RY2; replicate values, Fig_4g
T2 construct: expressed in transfected cells; host or cells: HTLA cells
T2 sequence (P41231 whole entry): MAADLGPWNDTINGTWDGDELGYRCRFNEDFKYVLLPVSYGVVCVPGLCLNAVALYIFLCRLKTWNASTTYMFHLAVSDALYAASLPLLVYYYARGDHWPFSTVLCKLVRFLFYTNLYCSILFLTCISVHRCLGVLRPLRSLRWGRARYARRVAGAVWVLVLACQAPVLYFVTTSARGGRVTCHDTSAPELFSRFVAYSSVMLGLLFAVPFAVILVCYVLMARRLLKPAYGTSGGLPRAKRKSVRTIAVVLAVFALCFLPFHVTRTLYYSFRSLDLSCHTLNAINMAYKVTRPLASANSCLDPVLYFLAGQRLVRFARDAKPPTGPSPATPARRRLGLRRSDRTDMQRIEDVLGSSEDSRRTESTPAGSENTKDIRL

320 non-olfactory GPCRs [3] = molecular target: 320 non-olfactory GPCRs (Homo sapiens, UniProt P25025)
320 non-olfactory GPCRs (Homo sapiens, UniProt P25025), sequence (P25025 whole entry): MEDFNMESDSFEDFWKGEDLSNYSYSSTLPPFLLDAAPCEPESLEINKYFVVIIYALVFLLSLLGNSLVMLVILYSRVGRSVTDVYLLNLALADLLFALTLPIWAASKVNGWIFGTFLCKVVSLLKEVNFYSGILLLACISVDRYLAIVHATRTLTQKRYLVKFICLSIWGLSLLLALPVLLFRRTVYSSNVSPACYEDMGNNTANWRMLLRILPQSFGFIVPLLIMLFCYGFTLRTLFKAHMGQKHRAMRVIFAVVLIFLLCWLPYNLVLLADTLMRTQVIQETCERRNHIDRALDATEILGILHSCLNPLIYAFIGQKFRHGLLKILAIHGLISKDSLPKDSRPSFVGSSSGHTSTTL

320 non-olfactory GPCRs [4] = molecular target: 320 non-olfactory GPCRs (Homo sapiens, UniProt P47211)
320 non-olfactory GPCRs (Homo sapiens, UniProt P47211), sequence (P47211 whole entry): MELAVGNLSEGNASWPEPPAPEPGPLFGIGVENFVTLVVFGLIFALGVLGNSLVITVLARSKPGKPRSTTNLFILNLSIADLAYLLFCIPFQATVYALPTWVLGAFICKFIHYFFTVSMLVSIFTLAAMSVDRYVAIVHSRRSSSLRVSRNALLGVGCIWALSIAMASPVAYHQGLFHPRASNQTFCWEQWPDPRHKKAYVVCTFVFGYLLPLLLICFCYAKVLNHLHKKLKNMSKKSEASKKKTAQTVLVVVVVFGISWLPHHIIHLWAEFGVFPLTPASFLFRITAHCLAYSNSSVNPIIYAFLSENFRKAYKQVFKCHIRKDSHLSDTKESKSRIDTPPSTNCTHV
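Wherever Fold of Basal is given: compound tested at 1 µM final concentration.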
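Wherever GPCRome agonism screen response is given: fold over basal response of each receptor without drug.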

T1 sequence (Q96LB1 whole entry): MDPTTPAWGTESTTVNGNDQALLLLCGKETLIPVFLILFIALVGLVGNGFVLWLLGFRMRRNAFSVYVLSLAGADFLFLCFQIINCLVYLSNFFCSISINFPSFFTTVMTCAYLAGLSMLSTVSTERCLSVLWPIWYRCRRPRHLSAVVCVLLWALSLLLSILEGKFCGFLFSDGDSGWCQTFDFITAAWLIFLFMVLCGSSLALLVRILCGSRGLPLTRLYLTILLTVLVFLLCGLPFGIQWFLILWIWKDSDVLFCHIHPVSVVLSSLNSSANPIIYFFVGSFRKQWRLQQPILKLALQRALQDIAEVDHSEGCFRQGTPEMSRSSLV

## CCOc1cccc2cc(C(C)NCC3(O)CCCCC3)oc12 (stereo not shown) [O4LE6]
320 non-olfactory GPCRs [1]
  GPCRome agonism screen response: 1.268 and 1.306 and 1.279 and 0.9356
320 non-olfactory GPCRs [2]
  GPCRome agonism screen response: 1.397 and 0.7849 and 2.272 and 0.7466
320 non-olfactory GPCRs [3]
  Fold of Basal: 1.166 and 1.131 and 0.9959 and 1.015
320 non-olfactory GPCRs [4]
  Fold of Basal: 0.9505 and 0.7559 and 1.028 and 0.7017
